Experimental data published in patent US20240368173A1, “TRICYCLIC GPR65 MODULATORS” (PATHIOS THERAPEUTICS LIMITED, priority 2021, published 2024).

Target: human recombinant GPR65 (Homo sapiens, UniProt Q8IYL9)
Assay: Human GPR65 cAMP HTRF antagonist assay
Type: cell-based
Conditions: not given
Text: In one preferred embodiment, the compound prevents the increase in cytoplasmic cAMP levels expected following GPR65 activation at acidic pH. This prevention of cAMP accumulation in turn prevents downstream signalling through ICER, as described above. The “Human GPR65 cyclic adenosine monophosphate (cAMP) Homogeneous Time Resolved Fluorescence (HTRF) antagonist assay”, or simply “cAMP assay”, as described in the accompanying examples, can be used to measure the potency of GPR65 modulators, which is expressed as the concentration of compound required to reduce the increase in cAMP concentration upon GPR65 activation by 50% (i.e. an IC50).
Human GPR65 Cyclic Adenosine Monophosphate (cAMP) Homogeneous Time Resolved Fluorescence (HTRF) Antagonist Assay Procedure
IC50 data was obtained by the following procedure:
1321N1 human astrocytoma cells stably expressing human recombinant GPR65 (1321N1-hrGPR65 cells, EuroscreenFast) were cultured according to the vendor's instructions.
Compounds were tested for their ability to antagonise GPR65, through measuring the concentration of cytoplasmic cAMP following treatment of the cells at a pH of 7.2 to activate GPR65 signalling and addition of the compound to be tested. The extent to which the expected rise in cAMP concentration upon GPR65 activation was suppressed by the added compound is indicative of its potency. The assay was carried out according to EuroscreenFast assay Methodology as follows.
On the day of the assay, test compounds were added to 384-well, low volume, white microtiter plates by acoustic dispensing. KRH buffer (5 mM KCl, 1.25 mM MgSO4, 124 mM NaCl, 25 mM HEPES, 13.3 mM Glucose, 1.25 mM KH2PO4 and 1.45 mM CaCl2) was adjusted to pH 6.5, pH 7.6 and pH 8.4 by adding NaOH. 1321N1-hGPR65 cells were rapidly thawed and diluted in KRH, pH 7.6 prior to centrifugation at 300×g for 5 min and resuspension in assay buffer (KRH, pH 7.6, supplemented with 1 mM 3-isobutyl-1-methylxanthine (IBMX) and 200 μM ethylenediaminetetraacetic acid (EDTA)). Cells were added to assay plates at a density of 2,000 cells per well in a volume of 5 μl. Assay plates were briefly centrifuged at 100×g and then incubated at room temperature for 30 min. Cells were stimulated by the addition of 5 μL KRH, pH 6.5, to achieve an assay pH of 7.2, while control wells received 5 μl KRH, pH 8.4 to achieve an assay pH of 7.9. Assay plates were briefly centrifuged at 100×g and then incubated at room temperature for 30 min.
Accumulation of cAMP was detected by cAMP HTRF kit (Cisbio). d2-labeled cAMP and cryptate-labeled anti-cAMP antibody in Lysis and Detection Buffer (Cisbio) were added to assay plates, and the plates were incubated at room temperature for 1 h. HTRF measurements were performed using a Pherastar FSX instrument. Acceptor and donor emission signals were measured at 665 nm and 620 nm, respectively, and HTRF ratios were calculated as signal665 nm/signal620 nm×10^4. Data were normalised to high and low control values and fitted with 4-parameter logistic regression to determine hGPR65 IC50 values for the test compounds, which are shown in Table 1.

human recombinant GPR65, sequence (Q8IYL9 whole entry): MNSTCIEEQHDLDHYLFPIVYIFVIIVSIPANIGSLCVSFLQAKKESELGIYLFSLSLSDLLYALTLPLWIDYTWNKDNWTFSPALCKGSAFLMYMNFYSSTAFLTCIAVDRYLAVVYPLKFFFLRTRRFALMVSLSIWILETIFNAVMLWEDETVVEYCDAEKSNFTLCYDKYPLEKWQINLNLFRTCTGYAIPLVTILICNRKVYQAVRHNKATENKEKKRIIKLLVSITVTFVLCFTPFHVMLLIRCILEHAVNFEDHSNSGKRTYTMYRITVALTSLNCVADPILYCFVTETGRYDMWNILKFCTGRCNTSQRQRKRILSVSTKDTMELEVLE

| SMILES | IC50 [nM] |
| --- | --- |
| O=C(Nc1cc(Cl)c(-c2ccc(F)nc2)cc1F)N1[C@H]2CC[C@@H]1c1c[nH]c(=O)cc1C2 [Compound 172, (6S,9R)-N-(5-Chloro-2-fluoro-4-(6-fluoropyridin-3-yl)phenyl)-3-oxo-3,5,6,7,8,9-hexahydro-2H-6,9-epiminocyclohepta[c]pyridine-10-carboxamide] | < 500 |
| O=C(Nc1cc(Cl)c(COc2cncc(F)c2)cc1F)N1[C@H]2CC[C@@H]1c1n[nH]c(=O)cc1C2 [Compound 316, (6S,9R)-N-(5-Chloro-2-fluoro-4-(((5-fluoropyridin-3-yl)oxy)methyl)phenyl)-3-oxo-3,5,6,7,8,9-hexahydro-2H-6,9-epiminocyclohepta[c]pyridazine-10-carboxamide] | < 500 |
| COc1ccc(-c2cc(F)c(NC(=O)N3[C@H]4CC[C@@H]3c3n[nH]c(=O)cc3C4)cc2Cl)cn1 [Compound 171, (6S,9R)-N-(5-Chloro-2-fluoro-4-(6-methoxypyridin-3-yl)phenyl)-3-oxo-3,5,6,7,8,9-hexahydro-2H-6,9-epiminocyclohepta[c]pyridazine-10-carboxamide] | < 500 |
| O=C(Nc1cc(Cl)c(-c2cnn(CC3CC3)c2)cc1F)N1[C@H]2CC[C@@H]1c1n[nH]c(=O)cc1C2 [Compound 144, (6S,9R)-N-(5-Chloro-4-(1-(cyclopropylmethyl)-1H-pyrazol-4-yl)-2-fluorophenyl)-3-oxo-3,5,6,7,8,9-hexahydro-2H-6,9-epiminocyclohepta[c]pyridazine-10-carboxamide] | < 500 |
| CC(C)COc1ccc(-c2cc(F)c(NC(=O)N3[C@H]4CC[C@@H]3c3n[nH]c(=O)cc3C4)cc2Cl)cn1 [Compound 319, (6S,9R)-N-(5-Chloro-2-fluoro-4-(6-isobutoxypyridin-3-yl)phenyl)-3-oxo-3,5,6,7,8,9-hexahydro-2H-6,9-epiminocyclohepta[c]pyridazine-10-carboxamide] | < 500 |
| O=C(Nc1cc(Cl)c(-c2ccc(F)nc2)cc1F)N1[C@H]2CC[C@@H]1c1ccnc(F)c1C2 [Compound 169, (5R,8S)-N-(5-Chloro-2-fluoro-4-(6-fluoropyridin-3-yl)phenyl)-1-fluoro-6,7,8,9-tetrahydro-5H-5,8-epiminocyclohepta[c]pyridine-10-carboxamide] | < 500 |
| O=C(Nc1cc(Cl)c(-c2ccc3nonc3c2)cn1)N1[C@H]2CC[C@@H]1c1n[nH]c(=O)cc1C2 [Compound 238, (6S,9R)-N-(5-(Benzo[c][1,2,5]oxadiazol-5-yl)-4-chloropyridin-2-yl)-3-oxo-3,5,6,7,8,9-hexahydro-2H-6,9-epiminocyclohepta[c]pyridazine-10-carboxamide] | < 500 |
| O=C(Nc1cc(Cl)c(Cl)cc1F)N1[C@H]2CC[C@@H]1c1c(OCc3ccccc3)cnc(F)c1C2 [Compound 102, (5R,8S)-4-(benzyloxy)-N-(4,5-dichloro-2-fluorophenyl)-1-fluoro-6,7,8,9-tetrahydro-5H-5,8-epiminocyclohepta[c]pyridine-10-carboxamide] | < 500 |
| O=C1c2c(ccnc2F)C2CCC1N2C(=O)Nc1cc(Cl)c(Cl)cc1F (racemic) [Compound 155, (±)—N-(4,5-Dichloro-2-fluorophenyl)-1-fluoro-9-oxo-6,7,8,9-tetrahydro-5H-5,8-epiminocyclohepta[c]pyridine-10-carboxamide] | < 500 |
| O=C(Nc1cc(Cl)c(-c2ccc(OCCN3CCCCC3)nc2)cc1F)N1[C@H]2CC[C@@H]1c1ccnc(F)c1C2 [Compound 220, (5R,8S)-N-(5-Chloro-2-fluoro-4-(6-(2-(piperidin-1-yl)ethoxy)pyridin-3-yl)phenyl)-1-fluoro-6,7,8,9-tetrahydro-5H-5,8-epiminocyclohepta[c]pyridine-10-carboxamide] | < 500 |
| CN1CCc2cc(-c3cc(F)c(NC(=O)N4[C@H]5CC[C@@H]4c4n[nH]c(=O)cc4C5)cc3Cl)ccc2C1=O [Compound 175, (6S,9R)-N-(5-Chloro-2-fluoro-4-(2-methyl-1-oxo-1,2,3,4-tetrahydroisoquinolin-6-yl)phenyl)-3-oxo-3,5,6,7,8,9-hexahydro-2H-6,9-epiminocyclohepta[c]pyridazine-10-carboxamide] | < 500 |
| O=C(Nc1cc(Cl)c(-c2cc3nonc3cc2F)cc1F)N1[C@H]2CC[C@@H]1c1n[nH]c(=O)cc1C2 [Compound 326, (6S,9R)-N-(5-Chloro-2-fluoro-4-(6-fluorobenzo[c][1,2,5]oxadiazol-5-yl)phenyl)-3-oxo-3,5,6,7,8,9-hexahydro-2H-6,9-epiminocyclohepta[c]pyridazine-10-carboxamide] | < 500 |
| O=C(Nc1cc(Cl)c(-c2ccc(OC(CF)CF)nc2)cc1F)N1[C@H]2CC[C@@H]1c1n[nH]c(=O)cc1C2 [Compound 307, (6S,9R)-N-(5-Chloro-4-(6-((1,3-difluoropropan-2-yl)oxy)pyridin-3-yl)-2-fluorophenyl)-3-oxo-3,5,6,7,8,9-hexahydro-2H-6,9-epiminocyclohepta[c]pyridazine-10-carboxamide] | < 500 |
| O=C(Nc1cc(Cl)c(C2CC2)cc1F)N1[C@H]2CC[C@@H]1c1ccnc(F)c1C2 [Compound 63, (5R,8S)-N-(5-Chloro-4-cyclopropyl-2-fluorophenyl)-1-fluoro-6,7,8,9-tetrahydro-5H-5,8-epiminocyclohepta[c]pyridine-10-carboxamide] | < 500 |
| O=C(Nc1cc(Cl)c(-c2ccc3nsnc3c2)cc1F)N1[C@H]2CC[C@@H]1c1c[nH]c(=O)cc1C2 [Compound 176, (6S,9R)-N-(4-(benzo[c][1,2,5]thiadiazol-5-yl)-5-chloro-2-fluorophenyl)-3-oxo-3,5,6,7,8,9-hexahydro-2H-6,9-epiminocyclohepta[c]pyridine-10-carboxamide] | < 500 |
| CCOc1ccc(-c2cc(F)c(NC(=O)N3[C@H]4CC[C@@H]3c3ccnc(F)c3C4)cc2Cl)cn1 [Compound 263, (5R,8S)-N-(5-Chloro-4-(6-ethoxypyridin-3-yl)-2-fluorophenyl)-1-fluoro-6,7,8,9-tetrahydro-5H-5,8-epiminocyclohepta[c]pyridine-10-carboxamide] | < 500 |
| O=C(Nc1cc(Cl)c(-c2ccc3nonc3c2)cn1)N1[C@H]2CC[C@@H]1c1ccnc(F)c1C2 [Compound 339, (5R,8S)-N-(5-(Benzo[c][1,2,5]oxadiazol-5-yl)-4-chloropyridin-2-yl)-1-fluoro-6,7,8,9-tetrahydro-5H-5,8-epiminocyclohepta[c]pyridine-10-carboxamide] | < 500 |
| COc1ccc(-c2cc(F)c(NC(=O)N3[C@H]4CC[C@@H]3c3ccnc(F)c3C4)cc2F)cn1 [Compound 245, (5R,8S)-N-(2,5-Difluoro-4-(6-methoxypyridin-3-yl)phenyl)-1-fluoro-6,7,8,9-tetrahydro-5H-5,8-epiminocyclohepta[c]pyridine-10-carboxamide] | < 500 |
| O=C(Nc1cc(Cl)c(C(F)(F)F)cc1F)N1C2CCC1C(F)c1c2ccnc1F (mixture of isomers) [Compound 226, (±, 9-endo)-N-(5-chloro-2-fluoro-4-(trifluoromethyl)phenyl)-1,9-difluoro-6,7,8,9-tetrahydro-5H-5,8-epiminocyclohepta[c]pyridine-10-carboxamide] | < 500 |
| O=C(Nc1cc(Br)c(Cl)cc1F)N1[C@H]2CC[C@@H]1c1c[nH]c(=O)nc1C2 [Compound 26, (5R,8S)-N-(5-Bromo-4-chloro-2-fluorophenyl)-2-oxo-3,5,6,7,8,9-hexahydro-2H-5,8-epiminocyclohepta[d]pyrimidine-10-carboxamide] | < 500 |
| O=C(Nc1cc(Cl)c(-c2cccnc2F)cc1F)N1[C@H]2CC[C@@H]1c1n[nH]c(=O)cc1C2 [Compound 115, (6S,9R)—N-(5-Chloro-2-fluoro-4-(2-fluoropyridin-3-yl)phenyl)-3-oxo-3,5,6,7,8,9-hexahydro-2H-6,9-epiminocyclohepta[c]pyridazine-10-carboxamide] | < 500 |

Same assay, conditions: 1321N1-hrGPR65 cells, cAMP HTRF, assay pH 7.2; read-out: hGPR65 IC50 (Activity of selected compounds according to the invention)

| SMILES | IC50 [nM] |
| --- | --- |
| O=C(Nc1ccc(OC(F)(F)F)c(Cl)c1)N1[C@@H]2CC[C@H]1c1n[nH]c(=O)cc1C2 [Compound 45, (6R,9S)-N-(3-Chloro-4-(trifluoromethoxy)phenyl)-3-oxo-3,5,6,7,8,9-hexahydro-2H-6,9-epiminocyclohepta[c]pyridazine-10-carboxamide] | > 5000 |
